Source: paper PMC5652740, “Inhibition of HIV-1 infection in humanized mice and metabolic stability of protein phosphatase-1-targeting small molecule 1E7-03” (Oncotarget, 2017)

Legend:
[1] = 1E7-03 degradation in ferret plasma; type: in vitro ADME; settings: 37°C
Experimental: (§1) 1E7-03 dissolved in DMSO (10 mM stock solution) was mixed with mouse plasma (Sigma-Aldrich), guinea pig plasma (Sigma-Aldrich), ferret plasma (BioreclamationIVT), monkey plasma (courtesy of Binhua Ling, PhD, Tulane University) and human plasma (collected from heathy volunteer by the Center for Sickle Cell Disease at Howard University) to the final concentration of 10 μM and incubated at 37°C. Aliquots were collected at different time points for up to 24 hrs. The resulting sample (60 μl) was mixed with 240 μl of cold acetone, vortexed for 2 min, kept at –20°C for 30 min, and then the precipitated protein was removed by centrifugation at 13,000 × g for 5 min. The supernatant was transferred to a clean test tube and evaporated to dryness using a SpeedVac concentrator. The residue reconstituted in 60 μl of acetonitrile for LC/FT-MS analysis. All experiments were run parallel in triplicates.

[2] = 1E7-03 degradation in monkey plasma; type: in vitro ADME; settings: 37°C
Experimental: as §1

[3] = 1E7-03 degradation in human plasma; type: in vitro ADME; settings: 37°C
Experimental: as §1

[4] = Stability of 1E7-03 in cell culture media and PBS; type: physicochemical
Experimental: CEM T cells were seeded in 24-well plates (200,000 cells/well). On the next day cells were treated with 10 μM 1E7-03. Media (100 μl) was collected at different time points during 48 hrs and total protein was precipitated by 400 μl of cold acetone and centrifuged at 13,000 × g for 5 min. The supernatant was collected and evaporated to dryness using a SpeedVac concentrator. The dry pellet was reconstituted in 100 μl of acetonitrile for LC/FT-MS analysis. In addition, 1E7-03 (10 μM) was incubated at 37°C in serum-free media and complete media without cell treatment. Media of 100 μl was collected after 24 hrs of incubation. The stabilities of 1E7-03 (10 μM) at phosphate buffered saline (PBS) and PBS with the addition of 10% bovine serum albumin were also investigated at 37°C incubation. Samples (100 μl) were collected at different time points up to 24 hrs. All samples were prepared by the same above-mentioned procedure for LC/FT-MS analysis.

[5] = system: RSP13 and β-actin mRNA in CEM T cells; experiment: Cellular transcription, RSP13 and β-actin mRNA by real-time RT-PCR; type: cell-based; settings: 10 μM, in words
Experimental: For quantitative analysis of HIV-1 RNA, CEM T cells were infected with HIV-1-LUC-G virus. Cells were treated with 10 μM 1E7-03, 10 μM DP1, 10 μM DP3, 5 μM AZT or 5 μM 3TC and control cells were untreated or treated with DMSO. Total RNA was isolated using Trizol Reagent (Invitrogen, Carlsbad, CA) according to the manufacturer's protocol. Total RNA (100 ng) was reverse transcribed to cDNA using Superscript™ RT-PCR kit (Invitrogen, Carlsbad, CA). Hexamers and oligo-dT were used as primers. For real-time PCR analysis, cDNA was amplified using Roche LightCycler 480 (Roche Diagnostics) and SYBR Green1 Master mix (Roche Diagnostics). PCR was run for 45 cycles and each cycle included denaturation at 95°C for 10 seconds, annealing at 60°C for 10 seconds, and extension at 72°C for 10 seconds. Quantification of env and gag was carried using 18S RNA as a normalization standard. Quantification of housekeeping genes, β-actin and RSP13 was carried relative to 18S RNA. Mean Cp values were determined and ΔΔCt method was used to calculate relative expression levels. Unpaired t-test was used to test statistical significance.
The following primer sequences were used: env, forward - […], reverse-[…]; gag, forward- […], reverse- […]; β-actin, forward- […], reverse-[…]; RSP13, forward- […], reverse- […]; and 18SrRNA, forward- […], reverse- […].

CEM T cells = experiment: Cytotoxicity with calcein-AM; type: cell-based; settings: in words
Experimental: To assess cytotoxicity with calcein, media was removed and the cells washed with PBS in order to remove serum esterase activity that may cause an increase in fluorescence through the hydrolysis of calcein-AM. Cells were then supplemented with 0.2 μM calcein-AM (Molecular Probes, Invitrogen) for 10 min at 37°C. Fluorescence was measured using the luminescence spectrometer described above implementing 495 nm excitation and 515 nm emission filters.

Compound | remaining at 24 h, 10 µM [1] [%] | remaining at 24 h, 10 µM [2] [%] | remaining at 24 h, 10 µM [3] [%] | Peak Area (%), Complete media ([4]; 10 μM 1E7-03 in media with 10% FBS, 37°C, 24 hrs, 1E7-03 remaining and DPs formed) [%] | Peak Area (%), FBS free media ([4]; 10 μM 1E7-03 in serum free media, 37°C, 24 hrs, 1E7-03 remaining and DPs formed) [%] | stability in complete media ([4]; 10 μM, 37°C, 48 hrs, in words) | remaining at 4 h, 10 µM ([4]; PBS with 10% bovine serum albumin, 4 hrs, read-out: % remaining intact in PBS with 10% BSA) [%] | remaining at 24 h, 10 µM ([4]; PBS with 10% bovine serum albumin, 24 hrs, read-out: % remaining in PBS with 10% BSA) [%] | % of compound degraded in PBS ([4]; PBS, 37°C, 4 hrs) | remaining at 48 h, 10 µM ([4]; human, culture media of CEM T cells, 48 hrs of incubation, read-out: % remained intact in cell culture media) [%] | RSP13 mRNA expression [5] | β-actin mRNA expression [5] | toxicity in CEM T cells compared to 1E7-03 (CEM T cells)
CCNC(=O)NC(=O)C(C)OC(=O)c1c2c(nc3ccccc13)/C(=C/c1ccc(OC)c(OC)c1)CC2 (stereo not shown) [1E7-03] | > 50 | > 50 | > 50 | 98.6 | 7 | remained stable and did not undergo degradation | 75 | > 50 | over 80% | > 90 | slight induction | slight induction | 
COc1ccc(/C=C2\CCCc3c2nc2ccccc2c3C(=O)OC(C)C(=O)OC(C)(C)C)cc1OC (stereo not shown) [DP1-07] |  |  |  |  |  |  |  |  |  |  |  |  | reduced toxicity
